In patent publication US10988477B2 (Merck Patent GmbH, priority 2018, dated 2021):
Read-outs that look alike come from different tables or passages of the source. Blank lines part the entries; values can stand above or below the molecule they belong to.

What was measured:
GCN2 kinase = GCN2 kinase (Homo sapiens, UniProt Q9P2K8); assay: GCN2 enzyme inhibition assay (Transcreener ADP2 fluorescence polarization); type: biochemical; settings: 280 μM ATP; for IC50: compounds of Formula IV
How it was run: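 Kinase activity is followed as ADP formation, measured by fluorescence polarization, using 4 nM enzyme with 280 μM ATP and 200 μM (RS)7 peptide at pH 7.5 and 25 °C for 1 h. Values come from a non-linear tight-binding fit.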

[1] = molecular target: intracellular GCN2 (phosphorylation of the GCN2 substrate eIF2α) (Homo sapiens, UniProt Q9P2K8); assay: GCN2 cellular inhibition assay (AlphaScreen SureFire P-eIF2α Ser51, borrelidin-treated U2OS cells); type: cell-based
Procedure: Compounds can be screened for their ability to inhibit intracellular GCN2 using an AlphaScreen assay (Perkin Elmer) to detect phosphorylation of the GCN2 substrate eIF2α in borrelidin-treated cells. U2OS cells are plated at 5,000 cells per well in 384-well white polystyrene plates (Corning 3570) in McCoy's 5 A media (GIBCO 26600-023) supplemented with 10% foetal bovine serum (SAFC 12103C), Penicillin/Streptomycin solution diluted 1:100 (Sigma P0781), and 2 mM L-glutamine (Sigma G7513), and allowed to adhere overnight at 37° C. in 5% CO2. Compounds are then added to the cell media from a final concentration of 40 μM in 4-fold serial dilutions. Borrelidin (FluoroChem M01440) is immediately added to the wells to a final concentration of 10 μM and the cells are incubated for 1 h at 37° C. in 5% CO2. After 1 h of treatment with borrelidin, the media is removed, and the cells are lysed with lysis buffer (TGR BioSciences TGRLB) at ambient temperature.
An AlphaScreen SureFire P-eIF2α (Ser51) assay kit (Perkin Elmer TGREIF2S) was used to measure levels of eIF2α phosphorylated on Serine 51. Anti-phosphorylated eIF2α Ser51 antibody-linked acceptor beads (TGR BioScience 6760617) are added to the cell homogenate (diluted 1:250 into a mixture of activation (TGR BioScience TGRAB) and reaction buffer (TGR BioScience TGREIF2S) prepared immediately before use). The plate is then incubated for 2 h at ambient temperature in the dark. Anti-eIF2α antibody-linked donor beads (TGR BioScience 6760617) were then added (diluted 1:100 in dilution buffer (TGR BioScience TGRDB) prepared immediately before use). The plate is then incubated overnight at ambient temperature in the dark.
Plates are analyzed on an Alpha Technology-compatible PHERAstar FS plate reader (BMG Labtech Version 1.14) to quantify phosphorylated eIF2α Ser51 levels. The percentage inhibition of phosphorylated eIF2α is calculated by comparison to control wells stimulated with borrelidin alone.

[2] = compounds of Formula II, 4 nM GCN2 kinase
[3] = compounds of Formula II, biomarker assay, phosphorylated eIF2α Ser51 in borrelidin-treated U2OS cells
[4] = compounds of Formula III, 4 nM GCN2 kinase
[5] = compounds of Formula III, U2OS cells, 10 μM borrelidin, 1 h, read-out: GCN2 Biomarker (IC50)
[6] = compounds of Formula V, 4 nM GCN2 kinase
[7] = compounds of Formula V, U2OS cells, 10 μM borrelidin, 1 h, read-out: GCN2 Biomarker (IC50)
[8] = Enzyme activity for compounds of Formula IV, Ki(app), 25° C.

intracellular GCN2 (phosphorylation of the GCN2 substrate eIF2α), sequence (Q9P2K8 whole entry): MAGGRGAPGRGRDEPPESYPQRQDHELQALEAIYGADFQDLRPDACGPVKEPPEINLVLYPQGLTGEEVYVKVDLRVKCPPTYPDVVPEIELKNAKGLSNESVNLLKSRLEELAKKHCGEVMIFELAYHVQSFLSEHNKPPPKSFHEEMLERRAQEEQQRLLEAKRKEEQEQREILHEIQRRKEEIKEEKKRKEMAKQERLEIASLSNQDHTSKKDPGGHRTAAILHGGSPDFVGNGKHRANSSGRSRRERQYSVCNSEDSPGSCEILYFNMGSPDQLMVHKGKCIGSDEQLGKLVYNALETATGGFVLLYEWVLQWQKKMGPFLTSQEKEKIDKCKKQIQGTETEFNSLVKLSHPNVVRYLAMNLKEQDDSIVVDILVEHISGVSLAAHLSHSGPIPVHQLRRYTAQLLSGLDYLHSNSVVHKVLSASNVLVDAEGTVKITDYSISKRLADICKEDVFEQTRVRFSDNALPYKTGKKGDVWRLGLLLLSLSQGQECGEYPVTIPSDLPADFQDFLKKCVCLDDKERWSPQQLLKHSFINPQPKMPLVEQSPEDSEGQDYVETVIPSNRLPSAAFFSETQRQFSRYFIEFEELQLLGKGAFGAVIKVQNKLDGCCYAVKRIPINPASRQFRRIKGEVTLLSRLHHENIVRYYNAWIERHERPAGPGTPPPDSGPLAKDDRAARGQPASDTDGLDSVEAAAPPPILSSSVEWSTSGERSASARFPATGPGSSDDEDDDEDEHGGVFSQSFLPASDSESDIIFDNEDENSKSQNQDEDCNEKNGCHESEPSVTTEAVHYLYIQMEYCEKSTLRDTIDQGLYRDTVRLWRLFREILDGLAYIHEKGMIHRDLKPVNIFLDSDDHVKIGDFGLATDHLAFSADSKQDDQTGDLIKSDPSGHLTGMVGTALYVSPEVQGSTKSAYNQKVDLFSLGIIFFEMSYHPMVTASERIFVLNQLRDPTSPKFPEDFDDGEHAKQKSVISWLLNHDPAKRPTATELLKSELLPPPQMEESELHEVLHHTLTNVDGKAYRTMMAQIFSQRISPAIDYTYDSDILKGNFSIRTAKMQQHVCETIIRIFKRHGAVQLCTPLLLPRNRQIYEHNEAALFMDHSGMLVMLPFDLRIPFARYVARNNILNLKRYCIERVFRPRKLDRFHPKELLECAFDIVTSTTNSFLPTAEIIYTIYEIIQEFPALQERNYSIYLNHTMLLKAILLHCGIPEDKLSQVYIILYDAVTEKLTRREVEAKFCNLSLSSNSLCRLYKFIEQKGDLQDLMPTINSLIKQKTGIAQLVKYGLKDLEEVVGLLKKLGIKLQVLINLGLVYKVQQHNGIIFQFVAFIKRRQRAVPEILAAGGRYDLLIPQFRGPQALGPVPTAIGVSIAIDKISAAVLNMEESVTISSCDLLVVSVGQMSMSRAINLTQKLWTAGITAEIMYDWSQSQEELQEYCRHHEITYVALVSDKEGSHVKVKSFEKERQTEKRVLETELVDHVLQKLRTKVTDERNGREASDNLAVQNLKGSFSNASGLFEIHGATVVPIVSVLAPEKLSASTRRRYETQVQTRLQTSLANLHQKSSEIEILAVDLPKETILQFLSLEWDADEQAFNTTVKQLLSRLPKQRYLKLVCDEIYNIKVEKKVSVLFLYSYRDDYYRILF
GCN2 kinase, sequence (Q9P2K8 whole entry): as above

Ki (GCN2 kinase; [2]): < 10 nM | IC50 [1, 3]: < 500 nM
SMILES: CS(=O)(=O)N1CC2(CCCN(c3ccnc(-c4cnc5ccc(C(F)F)nn45)c3)C2)C1

Ki (GCN2 kinase; [4]): 10 to 1000 nM | IC50 [1, 5]: 500 to 5000 nM
SMILES: CC(=O)N1CCN(c2cc(-c3cnn4ccc(C(F)F)nc34)ccn2)CC1

Ki (GCN2 kinase; [4]): 10 to 1000 nM | IC50 [1, 5]: > 5000 nM
SMILES: CC(=O)N1CCN(c2cc(-c3cnn4ccc(C(F)(F)F)nc34)ccn2)CC1

Ki (GCN2 kinase; [2]): < 10 nM | IC50 [1, 3]: < 500 nM
SMILES: CC1C(CNS(C)(=O)=O)N(C)CCN1c1cc(-c2cnc3ccc(C(F)F)nn23)ncn1 (mixture of isomers) [II-312, N-((4-(6-(6-(Difluoromethyl)imidazo[1,2-b]pyridazin-3-yl)pyrimidin-4-yl)-1,3-dimethylpiperazin-2-yl)methyl)methanesulfonamide]

Ki (GCN2 kinase; [6]): 10 to 100 nM | IC50 [1, 7]: > 5000 nM
SMILES: CP(C)(=O)C1CC(c2cn[nH]c2)CN(c2ccnc(-c3cnc4sc(C(F)(F)F)cn34)n2)C1 (racemic) [Compound V-5, 5-[4-[3-Dimethylphosphoryl-5-(1H-pyrazol-4-yl)-1-piperidyl]pyrimidin-2-yl]-2-(trifluoromethyl)imidazo[2,1-b]thiazole]

Ki (GCN2 kinase; [6]): 100 to 1000 nM | IC50 [1, 7]: > 5000 nM
SMILES: CS(=N)(=O)CC1CCCN(c2ccnc(-c3cnc4sc(C(F)(F)F)cn34)n2)C1 (racemic) [Compound V-18, Imino(methyl)((1-(2-(2-(trifluoromethyl)imidazo[2,1-b]thiazol-5-yl)pyrimidin-4-yl)piperidin-3-yl)methyl)-λ^6-sulfanone]

Ki (GCN2 kinase; [6]): 100 to 1000 nM | IC50 [1, 7]: > 5000 nM
SMILES: CS(=N)(=O)CC1CCCN(c2ccnc(-c3cnc4sc(C(F)(F)F)cn34)n2)C1 (racemic) [Compound V-19, Imino(methyl)((1-(2-(2-(trifluoromethyl)imidazo[2,1-b]thiazol-5-yl)pyrimidin-4-yl)piperidin-3-yl)methyl)-λ^6-sulfanone]

Ki (GCN2 kinase; [2]): < 10 nM | IC50 [1, 3]: < 500 nM
SMILES: CC1(F)CCN(c2cc(-c3cnc4ccc(C(F)F)nn34)ncn2)CC1CNS(C)(=O)=O (racemic) [II-350, N-((1-(6-(6-(Difluoromethyl)imidazo[1,2-b]pyridazin-3-yl)pyrimidin-4-yl)-4-fluoro-4-methylpiperidin-3-yl)methyl)methanesulfonamide]

Ki (GCN2 kinase; [8]): > 1000 nM
SMILES: Cn1cc(NC(=O)[C@@H]2CCCN(c3ccnc(-c4cnc5cnc(C(F)(F)F)cn45)n3)C2)cn1 [IV-728]

Ki (GCN2 kinase; [8]): > 1000 nM
SMILES: N=S1(=O)CCN(c2ccnc(-c3cnc4cnc(C(F)(F)F)cn34)n2)CC1 [IV-729]

Ki (GCN2 kinase; [8]): > 1000 nM
SMILES: CC1c2ccsc2CCN1c1ccnc(-c2cnc3cnc(C(F)(F)F)cn23)n1 (stereo not shown) [IV-730]

Ki (GCN2 kinase; [8]): > 1000 nM
SMILES: O=C(O)C1c2sccc2CCN1c1ccnc(-c2cnc3cnc(C(F)(F)F)cn23)n1 (stereo not shown) [IV-731]

Ki (GCN2 kinase; [8]): > 1000 nM
SMILES: O=C(N[C@H]1CCCN(c2ccnc(-c3cnc4cnc(C(F)(F)F)cn34)n2)C1)C1CC1 [IV-732]

Ki (GCN2 kinase; [8]): > 1000 nM
SMILES: O=C(N[C@H]1CCCN(c2ccnc(-c3cnc4cnc(C(F)(F)F)cn34)n2)C1)c1cccnc1F [IV-734]

Ki (GCN2 kinase; [8]): > 1000 nM
SMILES: NS(=O)(=O)c1ccc(C(=O)N[C@H]2CCCN(c3ccnc(-c4cnc5cnc(C(F)(F)F)cn45)n3)C2)o1 [IV-735]

Ki (GCN2 kinase; [8]): > 1000 nM
SMILES: N[C@H]1CCCN(c2ccnc(-c3cnc4cnc(C(F)(F)F)cn34)n2)C1 [IV-736]

Ki (GCN2 kinase; [8]): > 1000 nM
SMILES: O=C(N[C@H]1CCCN(c2ccnc(-c3cnc4cnc(C(F)(F)F)cn34)n2)C1)c1cc[nH]n1 [IV-737]

Ki (GCN2 kinase; [8]): > 1000 nM
SMILES: O=C(Nc1cccnc1)[C@@H]1CCCN(c2ccnc(-c3cnc4cnc(C(F)(F)F)cn34)n2)C1 [IV-738]

Ki (GCN2 kinase; [8]): > 1000 nM
SMILES: Cn1cc(NC(=O)[C@H]2CCCN(c3ccnc(-c4cnc5cnc(C(F)(F)F)cn45)n3)C2)cn1 [IV-739]

Ki (GCN2 kinase; [8]): > 1000 nM
SMILES: O=C(Nc1ccccn1)[C@H]1CCCN(c2ccnc(-c3cnc4cnc(C(F)(F)F)cn34)n2)C1 [IV-740]

Ki (GCN2 kinase; [8]): > 1000 nM
SMILES: O=C(N[C@H]1CCCN(c2ccnc(-c3cnc4cnc(C(F)(F)F)cn34)n2)C1)c1ccn(C2CC2)n1 [IV-742]

Ki (GCN2 kinase; [8]): > 1000 nM
SMILES: O=C(N[C@H]1CCCN(c2ccnc(-c3cnc4cnc(C(F)(F)F)cn34)n2)C1)c1ccc(F)cc1F [IV-744]

Ki (GCN2 kinase; [8]): > 1000 nM
SMILES: COCCn1ccc(C(=O)N[C@H]2CCCN(c3ccnc(-c4cnc5cnc(C(F)(F)F)cn45)n3)C2)n1 [IV-745]

Ki (GCN2 kinase; [8]): > 1000 nM
SMILES: O=C(N[C@H]1CCCN(c2ccnc(-c3cnc4cnc(C(F)(F)F)cn34)n2)C1)c1ccc(F)c(F)c1 [IV-746]

Ki (GCN2 kinase; [8]): > 1000 nM
SMILES: CS(C)(=O)=NCC(=O)N[C@H]1CCCN(c2ccnc(-c3cnc4cnc(C(F)(F)F)cn34)n2)C1 [IV-747]

Ki (GCN2 kinase; [8]): > 1000 nM
SMILES: O=C(N[C@H]1CCCN(c2ccnc(-c3cnc4cnc(C(F)(F)F)cn34)n2)C1)c1ccoc1 [IV-748]

Ki (GCN2 kinase; [8]): > 1000 nM
SMILES: FC(F)(F)c1cn2c(-c3nccc(N4CCc5sccc5C4)n3)cnc2cn1 [IV-749]

Ki (GCN2 kinase; [8]): > 1000 nM
SMILES: CC(C)(C)n1cc(C(=O)N[C@H]2CCCN(c3ccnc(-c4cnc5cnc(C(F)(F)F)cn45)n3)C2)nn1 [IV-750]

Ki (GCN2 kinase; [8]): > 1000 nM
SMILES: O=C(N[C@H]1CCCN(c2ccnc(-c3cnc4cnc(C(F)(F)F)cn34)n2)C1)c1c[nH]cn1 [IV-751]

IC50 (GCN2 kinase; 4 nM GCN2 kinase): 10 to 1000 nM
SMILES: Cc1n[nH]cc1[C@H]1C[C@H](C)CN(c2nccc(-c3cnc4cnc(C(F)(F)F)cn34)n2)C1 [IV-755, 3-(2-((3S,5R)-3-methyl-5-(3-methyl-1H-pyrazol-4-yl)piperidin-1-yl)pyrimidin-4-yl)-6-(trifluoromethyl)imidazo[1,2-a]pyrazine]

IC50 (GCN2 kinase; 4 nM GCN2 kinase): 10 to 1000 nM
SMILES: Cc1n[nH]cc1[C@@H]1C[C@@H](C)CN(c2nccc(-c3cnc4cnc(C(F)(F)F)cn34)n2)C1 [IV-756, -(2-((3R,5S)-3-methyl-5-(3-methyl-1H-pyrazol-4-yl)piperidin-1-yl)pyrimidin-4-yl)-6-(trifluoromethyl)imidazo[1,2-a]pyrazine]

IC50 (GCN2 kinase; 4 nM GCN2 kinase): 10 to 1000 nM
SMILES: Cc1n[nH]cc1[C@@H]1C[C@H](C)CN(c2nccc(-c3cnc4cnc(C(F)(F)F)cn34)n2)C1 [IV-759, 3-(2-((3S,5S)-3-methyl-5-(3-methyl-1H-pyrazol-4-yl)piperidin-1-yl)pyrimidin-4-yl)-6-(trifluoromethyl)imidazo[1,2-a]pyrazine]

IC50 (GCN2 kinase; 4 nM GCN2 kinase): 10 to 1000 nM
SMILES: Cc1n[nH]cc1[C@@H]1CN(c2ccnc(-c3cnc4cnc(C(F)(F)F)cn34)n2)C[C@@H](C)O1 [IV-760, (2R,6R)-2-methyl-6-(3-methyl-1H-pyrazol-4-yl)-4-(2-(6-(trifluoromethyl)imidazo[1,2-a]pyrazin-3-yl)pyrimidin-4-yl)morpholine]

IC50 (GCN2 kinase; 4 nM GCN2 kinase): 10 to 1000 nM
SMILES: Cc1n[nH]cc1[C@H]1CN(c2ccnc(-c3cnc4cnc(C(F)(F)F)cn34)n2)C[C@H](C)O1 [IV-761, (2S,6S)-2-methyl-6-(3-methyl-1H-pyrazol-4-yl)-4-(2-(6-(trifluoromethyl)imidazo[1,2-a]pyrazin-3-yl)pyrimidin-4-yl)morpholine]

IC50 (GCN2 kinase; 4 nM GCN2 kinase): 10 to 1000 nM
SMILES: C[C@H]1C[C@H](c2cn[nH]c2)CN(c2ccnc(-c3cnc4cnc(C(F)(F)F)cn34)n2)C1 [IV-768, 3-(4-((3S,5R)-3-methyl-5-(1H-pyrazol-4-yl)piperidin-1-yl)pyrimidin-2-yl)-6-(trifluoromethyl)imidazo[1,2-a]pyrazine]

IC50 (GCN2 kinase; 4 nM GCN2 kinase): 10 to 1000 nM
SMILES: C[C@@H]1C[C@H](N=S(C)(C)=O)CN(c2ccnc(-c3cnc4cnc(Cl)cn34)n2)C1 [IV-773, (((3S,5R)-1-(2-(6-chloroimidazo[1,2-a]pyrazin-3-yl)pyrimidin-4-yl)-5-methylpiperidin-3-yl)imino)dimethyl-16-sulfanone]

IC50 (GCN2 kinase; 4 nM GCN2 kinase): 10 to 1000 nM
SMILES: C[C@H]1[C@@H](c2cn[nH]c2)N(C(=O)C2CC2)[C@@H](C)CN1c1ccnc(-c2cnc3cnc(C(F)(F)F)cn23)n1 [IV-778, cyclopropyl((2R,3S,6S)-3,6-dimethyl-2-(1H-pyrazol-4-yl)-4-(2-(6-(trifluoromethyl)imidazo[1,2-a]pyrazin-3-yl)pyrimidin-4-yl)piperazin-1-yl)methanone]

IC50 (GCN2 kinase; 4 nM GCN2 kinase): 10 to 1000 nM
SMILES: C[C@H]1[C@@H](c2cn[nH]c2)N(C(=O)c2cnoc2)[C@@H](C)CN1c1ccnc(-c2cnc3cnc(C(F)(F)F)cn23)n1 [IV-779, ((2R,3S,6S)-3,6-dimethyl-2-(1H-pyrazol-4-yl)-4-(2-(6-(trifluoromethyl)imidazo[1,2-a]pyrazin-3-yl)pyrimidin-4-yl)piperazin-1-yl)(isoxazol-4-yl)methanone]
